Patent US20020182179A1, “HIV Therapy” (priority 1999, published 2002)

How the values were obtained:
[1] = biological target: HIV-1 protease (Human immunodeficiency virus type 1 group M subtype B, UniProt P04585); details: Phase I studies; cited from earlier work
[2] = preclinical; po and IV; cited from earlier work
[3] = test system: HIV-1; details: clinical use; cited from earlier work
[4] = test system: HIV-1-LAI strain; experiment: in vitro anti-HIV-1 activity in PHA-P-activated PBMCs, RT activity in cell supernatants; format: cell-based
Description: Healthy PBMCs were separated from a buffy-coat of one HIV-seronegative blood donor by Ficoll-Hypaque density gradient centrifugation. PBMCs were activated by 1 μg/ml phytohemagglutinin (PHA-P) for two days in cell culture medium A: RPMI 1640 supplemented with 10% heat-inactivated (+56° C., 45 min.) fetal calf plasma (FCS), 2 mM L-glutamine and a tri-antibiotic mixture (penicillin, streptomycin, neomycin; PSN). After these two days, cells were washed and cultured at one million cell per milliliter in cell culture medium B: cell culture medium A supplemented with 20 IU/ml recombinant human interleukin-2. Cells were maintained at +37° C. in a 5% CO2-air humidified atmosphere.
Experiments were repeated twice with cells of other blood donors. In total, three independent experiments were performed. […]
200,000 PHA-P-activated PBMCs were added to each well of 96-well microplates. […] At day 7, RT activity were determined in cell supernatants, and potential cytotoxic effects of drugs and drug combinations were evaluated by microscopic observation.
Viral replication was measured by determining reverse transcriptase (“RT”) activity in cell supernatants using Retro-Sys® kit, according to manufacturer's recommendations (Innovagen, Lund, Sweden).
Effective doses were calculated using cumulative RT activities with Chou J. and T C. microcomputer software.

[5] = test system: duck HBV; details: preclinical; cited from earlier work

Cc1cccc(C)c1OCC(=O)N[C@@H](Cc1ccccc1)[C@@H](O)C[C@H](Cc1ccccc1)NC(=O)[C@H](C(C)C)N1CCCNC1=O [ABT-378]
potency relative to ritonavir [1]: ^9Phase I Studies show ABT-378 to be 10X more potent than ritonavir; see PharmaProjects sections J5A & J5Z.

Nc1nc(N)c2ncn([C@H]3CO[C@@H](CO)O3)c2n1 [DAPD, (−)-beta-D-2,6,-diaminopurine dioxolane]
activity by route of administration [2]: ^10Preclinical; active po and IV; DAPD is a prodrug of another dioxolene purine, DXG. See PharmaProjects, sections J5A & J5Z

CC(C)c1nc(CN(C)C(=O)N[C@H](C(=O)N[C@@H](Cc2ccccc2)C[C@H](O)[C@H](Cc2ccccc2)NC(=O)OCc2cncs2)C(C)C)cs1 [Ritonavir]
adverse effects [3]: troublesome adverse effects

PEG12000-IFN-alfa2b: conjugate of interferon alfa-2b with polyethylene glycol of average molecular weight 12000 via a urethane linkage
effect on the in vitro anti HIV-1 activity of ribavirin ([4]; PHA-P-activated PBMCs infected with HIV-1-LAI): increased the in vitro anti HIV-1 activity of ribavirin | inhibition of HIV replication in vitro ([4]; PHA-P-activated PBMCs, doses corresponding to plasmatic concentrations observed in animals and man): inhibited the HIV replication

beta-L-2′, 3′-dicleoxy-5-fluorocytidene [Beta-L-FD4]
activity in duck HBV model [5]: ^9Preclinical; active in duck HBV model; see PharmaProjects, sections J5A & J5Z
